Source: patent publication US20230172933A1, “USE OF A COMPOUND OR COMPOSITION COMPRISING AN INHIBITOR OF NLRP1 INFLAMMASOME ACTIVATION FOR THE TREATMENT OF HUMAN AIRWAY INFLAMMATION” (Nanyang Technological University, priority 2020, published 2023)
“Also recorded” adds a separate entry of the source. Peptide text beside a SMILES is read from it. * marks the point of attachment. Cbz = O=C(OCc1ccccc1)*

Tests used:
human NLRP1 inflammasome = assay: HRV14-3Cpro-induced ASC-GFP speck formation in 293T-ASC-GFP-NLRP1-FLAG reporter cells; format: cell-based; conditions: 293T-ASC-GFP-NLRP1-FLAG cells transfected with HRV14-3Cpro; MLN4924 1 μM, MG132 2.5 μM, Bortezomib 0.5 μM, phenylalanine 1 mM; 24 hours
NLRP1 = NLRP1 self-oligomerization (BN-PAGE) and cleavage fragment (SDS-PAGE/Western blot) in 293T-NLRP1-FLAG cells transfected with HRV14-3Cpro; format: cell-based, human; conditions: for HRV14-3Cpro-induced NLRP1 self-oligomerization: 293T-NLRP1-FLAG cells, BN-PAGE, drugs for 24 hours, MG132 2.5 μM; for stabilization of the post-cleavage NLRP1 fragment (a.a. 131-1213): 293T-NLRP1-FLAG cells transfected with HRV14-3Cpro, Western blot
[1] = system: NLRP1 cleavage by HRV16 3Cpro; assay: NLRP1 cleavage in HRV16-infected HeLa-Ohio-NLRP1-HA cells; format: cell-based, human; conditions: HRV16 MOI=1
Experimental: (A) HRV16 infection causes NLRP1 cleavage in HeLa-Ohio-NLRP1-HA cells. MOI=1. (B) Q130A abrogates HRV16-induced NLRP1 cleavage and ASC-GFP oligomerization. HeLa-Ohio-ASC-GFP-NLRP1WT or NLRP1^Q130A cells were infected with HRV16 at MOI=1 at 33° C. Cell pellets were harvested 48 hours post infection. (C) The effect of HRV16 infection on ASC-GFP speck formation in HeLa-Ohio-ASC-GFP cells expressing wild-type NLRP1 or NLRP1^Q130A. ***P<0.001 (Two-way ANOVA). n=3 replicates from one of two independent infections, >100 cells per condition. (D) Representative images of ASC-GFP specks in HeLa-Ohio-ASC-GFP cells expressing wild-type NLRP1 or NLRP1^Q130A. Arrows: ASC-GFP specks. Note that in this cell line the ASC-GFP specks appear less compact, even in Talabostat-treated positive control cells. […]
The effect of live HRV infection in disease-relevant human epithelial cell types was then examined. In HeLa-Ohio cells overexpressing NLRP1-HA, robust HRV16 viral replication was achieved 16 hours post inoculation (MOI=1) as detected by the accumulation of the viral capsid protein VP2 (FIG. 8A, lanes 4, 5, 10 and 11). […] Using HeLa-Ohio cells that additionally expressed ASC-GFP, we next tested whether HRV16 infection could lead to NLRP1 inflammasome complex assembly. […]

[2] = system: NLRP1 inflammasome in HRV16-infected NHBEs; assay: HRV16-induced IL-1β and IL-18 secretion in NHBEs (ELISA); format: cell-based, human; conditions: HRV16 MOI=5, 33° C., 48 hours, pre-treated: MLN4924 1 μM, Bortezomib 1 μM, MCC950 5 μM, Rupintrivir 10 nM
Experimental: (§1) (A) Expression levels of NLRP1 vs. NLRP3 (RNAseq FKPM) in NHBEs. n=21, independent cultures of pooled NHBEs from healthy donors. (B) Expression of NLRP1 vs. NLRP3 in healthy human nasal biopsy. Puncta: positive staining by RNAscope. Nuclei staining: hematoxylin. (C) Overview of cytokine profiling of by HRV16-infected and Talabostat-treated NHBEs. (D) Cells were inoculated with HRV16 at MOI=5 and cultured at 33° C. for 48 hours. Luminex array was performed on conditioned media after removing cell debris. n=3 independent infections and treatment. Cytokines/chemokines that were induced at least 5 fold (p<0.05, Student's t test, lognormal values) are represented by square boxes. […] NHBEs were pretreated with MCC950 (5 μM) or Rupintrivir (10 nM) before HRV16 inoculation or Talabostat (2 μM) treatment. […] (G) Overview of apical HRV infection 3D human bronchial epithelial cultures. (H) Alcian blue (AB)/periodic acid-Schiff (PAS) staining of HRV16-infected (MOI=3) and Talabostat (2 μM)-treated 3D human bronchial epithelial cultures. (1) IL-18 level in apical or basal media 48 hours post-infection or Talabostat treatment. **P<0.01, ***P<0.001, ****P<0.0001 (Two-way ANOVA). n=3 independent infected/treated cultures. (J) Secretion of cleaved IL-1β and IL-18 and ASC oligomerization in HRV16-infected primary NHBEs. Cells were inoculated with HRV16 (MOI=5) or treated with Talabostat (2 μM) for 48 hours at 33° C.
(A) Endogenous NLRP1, ASC and caspase-1 are indispensable for HRV16-induced IL-18 secretion in NHBEs. Cas9-control, NLRP1, ASC and CASP1 KO NHBEs were infected with HRV16 as before. Conditioned media were harvested 48 hours post-infection. (B) NLRP1 is genetically required for HRV16-induced IL-18 cleavage and ASC oligomerization. Cas9 control, NLRP1 and ASC KO NHBEs were infected with HRV16 as before. Cleaved IL-18 are marked with arrows. (C) Mutating the NLRP1 cleavage site abrogates HRV16-triggered IL-18 secretion in NHBEs. NLRP1 KO NHBEs were rescued with lentiviral constructs expressing FLAG-tagged NLRP1^WT or NLRP1^Q130A, which carried silent mutations at the PAM sites. The rescued cells were infected with HRV16 or treated with Talabostat. Conditioned media was analyzed by IL-18 ELISA. **P<0.01, ***P<0.001, n=3 replicates from one of two independent infections. (D) Q130A abrogates NLRP1 cleavage, IL-18 maturation and ASC oligomerization in NHBEs. NLRP1 KO or NLRP1^WT- or NLRP1^Q130A-rescued cells were infected with HRV16 or treated with Talabostat. Cells were harvested 48 hours post infection. Arrow: NLRP1 cleavage product in lane 8 HRV16. *: Non-specific NLRP1 degradation product that occurs right below the a.a. 131-1213 cleavage fragment. See also FIG. 3E, 5E, 5D. (E) MLN4924 and Bortezomib blocks HRV16-induced IL-18 secretion. NHBEs were pre-treated with MLN4924 (1 μM) or Bortezomib (1 μM) before HRV16 infection or Talabostat treatment. IL-18 levels were measured with ELISA. ****, p<0.0001 (Two-way ANOVA), n=3 independent infections/treatment. (F) MLN4924 and Bortezomib blocks HRV16-induced IL-1β secretion. […] Lysates from HRV16-infected NHBEs in FIGS. 9E-F were analyzed by Western blot 48 hours post HRV16 inoculation.
(§2) The following antibodies were used in this study: c-Myc (Santa Cruz Biotechnology #sc-40), HA tag (Santa Cruz Biotechnology, #sc-805), GAPDH (Santa Cruz Biotechnology, #sc-47724), ASC (Adipogen, #AL-177), CASP1 (Santa Cruz Biotechnology, #sc-622), IL1B (R&D systems, #AF-201), FLAG (SigmaAldrich, #F3165), GFP (Abcam, #ab290), NLRP1 (R&D systems, #AF6788), IL18 (Abcam ab207324) and VP2 (QED Bioscience, #18758). HRV16-3Cpro was detected by rabbit serum, a kind gift from Dr. Ann Palmenberg and Dr. James Gern (University of Wisconsin). Cytokine and chemokine measurements were carried out with human IL-1B ELISA kit (BD, #557953), human IL-18 ELISA kit (MBL Bioscience, #7620) and Immune Monitoring 65-Plex Human ProcartaPlex™ Panel (ThermoFisher EPX650-10065-901). […]

[3] = system: endogenous NLRP1 inflammasome; assay: Endogenous NLRP1 inflammasome in doxycycline-induced Tet-ON HRV14-3Cpro N/TERT keratinocytes; format: cell-based, human; conditions: doxycycline 24 hours; for mature IL-1β secretion upon HRV14-3Cpro induction: Western blot, ELISA
[4] = system: NLRP1 inflammasome in Talabostat-treated NHBEs; assay: Talabostat-induced IL-1β and IL-18 secretion in NHBEs (ELISA); format: cell-based, human; conditions: Talabostat 2 μM, pre-treated: MLN4924 1 μM, MCC950 5 μM, Rupintrivir 10 nM
Experimental: as §1
(A) Endogenous NLRP1, ASC and caspase-1 are indispensable for HRV16-induced IL-18 secretion in NHBEs. Cas9-control, NLRP1, ASC and CASP1 KO NHBEs were infected with HRV16 as before. Conditioned media were harvested 48 hours post-infection. (B) NLRP1 is genetically required for HRV16-induced IL-18 cleavage and ASC oligomerization. Cas9 control, NLRP1 and ASC KO NHBEs were infected with HRV16 as before. Cleaved IL-18 are marked with arrows. […] Conditioned media was analyzed by IL-18 ELISA. **P<0.01, ***P<0.001, n=3 replicates from one of two independent infections. […] IL-18 levels were measured with ELISA. ****, p<0.0001 (Two-way ANOVA), n=3 independent infections/treatment. […] Lysates from HRV16-infected NHBEs in FIGS. 9E-F were analyzed by Western blot 48 hours post HRV16 inoculation.
as §2, with “Wisconsin).” for “Wisconsin). Cytokine and chemokine measurements were carried out with human IL-1B ELISA kit (BD, #557953), human IL-18 ELISA kit (MBL Bioscience, #7620) and Immune Monitoring 65-Plex Human ProcartaPlex™ Panel (ThermoFisher EPX650-10065-901).”

Compound	HRV14-3Cpro-induced ASC-GFP speck formation (human NLRP1 inflammasome)	HRV14-3Cpro-induced NLRP1 self-oligomerization (NLRP1)	NLRP1 cleavage [1]	HRV16-induced IL-1β secretion [2]	HRV16-induced IL-18 secretion [2]	ASC oligomerization upon HRV14-3Cpro induction [3]	mature IL-1β secretion upon HRV14-3Cpro induction [3]	stabilization of the post-cleavage NLRP1 fragment (a.a. 131-1213) (NLRP1)	HRV16-induced IL-1β secretion ([2]; listed as bortezomib)	HRV16-induced IL-18 secretion ([2]; listed as bortezomib)	Talabostat-induced IL-1β secretion [4]	Talabostat-induced IL-18 secretion [4]
N[C@@H](Cc1ccccc1)C(=O)O [phenylalanine]	had no effect	had no effect										
CCOC(=O)/C=C/[C@H](C[C@@H]1CCNC1=O)NC(=O)[C@@H](CC(=O)[C@@H](NC(=O)c1cc(C)on1)C(C)C)Cc1ccc(F)cc1 [Rupintrivir]			completely abrogated	completely abrogated	completely abrogated							
CC(C)C[C@H](NC(=O)[C@H](Cc1ccccc1)NC(=O)c1cnccn1)B(O)O [Bortezomib, [(1R)-3-methyl-1-[[(2S)-3-phenyl-2-(pyrazine-2-carbonylamino)propanoyl]amino]butyl]boronic acid]	blocked			blocks	blocks	completely blocked	completely blocked	to similar degrees	completely blocked	completely blocked		
CC(C)(O)c1coc(S(=O)(=O)NC(=O)Nc2c3c(cc4c2CCC4)CCC3)c1 [MCC950]				neither IL-1β nor IL-18 secretion was affected; also recorded: did not affect	neither IL-1β nor IL-18 secretion was affected						neither IL-1β nor IL-18 secretion was affected	neither IL-1β nor IL-18 secretion was affected
CC(C)C[C@@H](C=O)NC(=O)[C@H](CC(C)C)NC(=O)[C@H](CC(C)C)NC(=O)OCc1ccccc1 [MG132, benzyl N-[(2S)-4-methyl-1-[[(2S)-4-methyl-1-[[(2S)-4-methyl-1-oxopentan-2-yl]amino]-1-oxopentan-2-yl]amino]-1-oxopentan-2-yl]carbamate] (Cbz-Leu-Leu-Leu-aldehyde)	significantly blocked	significantly blocked				completely abrogated	completely abrogated	to similar degrees				
